Data reported in patent US8993574B2, “Pyrrole antifungal agents” (F2G Ltd, priority 2008, dated 2015).
≈ marks a conversion by molar mass, not a printed value.

How the values were obtained:
Assay type in all cases: cell-based
Aspergillus niger [1] = test: MIC, RPMI medium; settings: Aspergillus niger, MIC banded into grades, read-out: MIC grade, A. niger
Method: (§1) Between 1 and 5 mgs of compound were accurately weighed out into a sterile Eppendorf tube. The compound was dissolved in DMSO to give a solution containing 5 mg/mL. Tubes were stored at −20° C. until required.
(§2) On the day of testing thawed solutions were vortex mixed to ensure homogeneity. 30 μL of solution was removed and added to 570 μL of sterile water in a separate sterile Eppendorf. The thoroughly mixed solution was used to prepare a series of doubling dilutions in water, in a deep well plate. Thirteen replicate plates were prepared using a Minitrak by aspirating 20 μL from each well into eleven clear polystyrene 96 well plates.
(§3) Assays were also performed in RPMI medium for both Aspergillus spp. (strains described above) and Candida spp. (Candida albicans, Candida glabrata, Candida krusei, Candida parapsilosis and Candida tropicalis). To perform MIC tests in this medium, dilutions of compounds are prepared in microtitre plates as described above. Fungal strains to be tested are grown and harvested in an identical manner to that described above, and each organism suspension was diluted in RPMI medium, containing 2% glucose and 0.135 M MOPS buffer (pH 7.0) to 0.5-2×10^4 cfu/mL, rather than in YAG medium. 80 μL of an organism suspension was added to each well of the plate containing drug dilutions.
(§4) This produced MIC plates with a drug range 50-0.05 mg/L and organism inocula of 1−2×10^4 cfu/mL. All plates were incubated for 24-48 h at 35° C. Growth was assessed by monitoring the optical density at 485 nm for each well. The MIC of a compound is the lowest drug concentration that inhibits growth of an organism by >80% compared with a drug free control.
(§5) The following organisms were tested: Aspergillus flavus, Aspergillus fumigatus AF293 and AF210, Aspergillus niger, Aspergillus terreus AT4 and AT49, Candida albicans, Candida glabrata, Candida krusei, Candida parapsilosis and Candida tropicalis.

Aspergillus terreus AT49 [2] = test: MIC, RPMI medium; settings: Aspergillus terreus, AT49, MIC banded into grades, read-out: MIC grade, A. terreus 49
Method: as §1, §2, §3, §4, §5

[3] = tested on: Aspergillus fumigatus AF293; test: MIC, RPMI medium; settings: Aspergillus fumigatus, AF293, MIC banded into grades, read-out: MIC grade, A. fumigatus
Method: as §1, §2, §3, §4, §5

Aspergillus terreus AT4 [4] = test: MIC, RPMI medium; settings: Aspergillus terreus, AT4, MIC banded into grades, read-out: MIC grade, A. terreus
Method: as §1, §2, §3, §4, §5

[5] = tested on: Aspergillus fumigatus AF210; test: MIC, RPMI medium; settings: Aspergillus fumigatus, AF210, MIC banded into grades, read-out: MIC grade, A. fumigatus 210
Method: as §1, §2, §3, §4, §5

Aspergillus flavus [6] = test: MIC, RPMI medium; settings: Aspergillus flavus, MIC banded into grades, read-out: MIC grade, A. flavus
Method: as §1, §2, §3, §4, §5

Aspergillus niger [7] = test: MIC, YAG medium; settings: Aspergillus niger, 24 h at 35° C, MIC banded into grades, read-out: MIC grade, A. niger
Method: as §1, §2
(§6) Spores of Aspergillus spp. (Aspergillus fumigatus [two strains], Aspergillus terreus [two strains], Aspergillus niger and Aspergillus flavus) were harvested from cultures grown on Sabarauds agar for 5 days, and resuspended in PBS/Tween 80 to approx 1×10^7 cfu/mL. Each organism suspension was diluted in YAG medium (1% glucose, 1% ammonium chloride and 0.5% yeast extract) to 0.5−2×10^4 cfu/mL. 80 μL of an organism suspension was added to each well of the plate containing drug dilutions.
as §4, with “cfu/mL for Aspergillus spp.” for “cfu/mL.”, “24” for “24-48”, “>70%” for “>80%”, “control. MICs are recorded as mg/L. In cases where the MIC of an organism is […] mg/L the MIC is repeated using a concentration range of 0.5-0.0005 mg/L.” for “control.”
as §5

Aspergillus terreus AT49 [8] = test: MIC, YAG medium; settings: Aspergillus terreus, 24 h at 35° C, MIC banded into grades, read-out: MIC grade, A. terreus 49
Method: as §1, §2, §6
as §4, with “cfu/mL for Aspergillus spp.” for “cfu/mL.”, “24” for “24-48”, “>70%” for “>80%”, “control. MICs are recorded as mg/L. In cases where the MIC of an organism is […] mg/L the MIC is repeated using a concentration range of 0.5-0.0005 mg/L.” for “control.”
as §5

[9] = tested on: Aspergillus fumigatus AF293; test: MIC, YAG medium; settings: Aspergillus fumigatus, 24 h at 35° C, MIC banded into grades, read-out: MIC grade, A. fumigatus
Method: as §1, §2, §6
as §4, with “cfu/mL for Aspergillus spp.” for “cfu/mL.”, “24” for “24-48”, “>70%” for “>80%”, “control. MICs are recorded as mg/L. In cases where the MIC of an organism is […] mg/L the MIC is repeated using a concentration range of 0.5-0.0005 mg/L.” for “control.”
as §5

Aspergillus terreus AT4 [10] = test: MIC, YAG medium; settings: Aspergillus terreus, 24 h at 35° C, MIC banded into grades, read-out: MIC grade, A. terreus
Method: as §1, §2, §6
as §4, with “cfu/mL for Aspergillus spp.” for “cfu/mL.”, “24” for “24-48”, “>70%” for “>80%”, “control. MICs are recorded as mg/L. In cases where the MIC of an organism is […] mg/L the MIC is repeated using a concentration range of 0.5-0.0005 mg/L.” for “control.”
as §5

[11] = tested on: Aspergillus fumigatus AF210; test: MIC, YAG medium; settings: Aspergillus fumigatus, 24 h at 35° C, MIC banded into grades, read-out: MIC grade, A. fumigatus 210
Method: as §1, §2, §6
as §4, with “cfu/mL for Aspergillus spp.” for “cfu/mL.”, “24” for “24-48”, “>70%” for “>80%”, “control. MICs are recorded as mg/L. In cases where the MIC of an organism is […] mg/L the MIC is repeated using a concentration range of 0.5-0.0005 mg/L.” for “control.”
as §5

Aspergillus flavus [12] = test: MIC, YAG medium; settings: Aspergillus flavus, 24 h, 24 h at 35° C, MIC banded into grades, read-out: MIC grade, A. flavus
Method: as §1, §2, §6
as §4, with “cfu/mL for Aspergillus spp.” for “cfu/mL.”, “24” for “24-48”, “>70%” for “>80%”, “control. MICs are recorded as mg/L. In cases where the MIC of an organism is […] mg/L the MIC is repeated using a concentration range of 0.5-0.0005 mg/L.” for “control.”
as §5

Row | SMILES | MIC (Aspergillus niger [1]) | MIC (Aspergillus terreus AT49 [2]) | MIC [3] | MIC (Aspergillus terreus AT4 [4]) | MIC [5] | MIC (Aspergillus flavus [6]) | MIC (Aspergillus niger [7]) | MIC (Aspergillus terreus AT49 [8]) | MIC [9] | MIC (Aspergillus terreus AT4 [10]) | MIC [11] | MIC (Aspergillus flavus [12])
1 | Cc1cc(C)nc(N2CCN(c3ccc(NC(=O)C(=O)c4ccc(C)[nH]4)cc3)CC2)c1 [Example 4, N-{4-[4-(4,6-Dimethyl-pyridin-2-yl)-piperazin-1-yl]-phenyl}-2-(5-methyl-1H-pyrrol-2-yl)-2-oxo-acetamide] | > 10 µg/mL | > 10 µg/mL | > 10 µg/mL | > 10 µg/mL | > 10 µg/mL | > 10 µg/mL | 1 to 10 µg/mL (≈ 2.4 to 24 µM) | 1 to 10 µg/mL (≈ 2.4 to 24 µM) | 1 to 10 µg/mL (≈ 2.4 to 24 µM) | > 10 µg/mL | 1 to 10 µg/mL (≈ 2.4 to 24 µM) | 1 to 10 µg/mL (≈ 2.4 to 24 µM)
2 | Cc1cc(C)nc(N2CCN(c3ccc(NC(=O)C(=O)c4c(-c5ccccc5)cc5n4CCN(C)C5)cc3)CC2)c1 [Example 5, N-{4-[4-(4,6-Dimethyl-pyridin-2-yl)-piperazin-1-yl]-phenyl}-2-(2-methyl-7-phenyl-1,2,3,4-tetrahydro-pyrrolo[1,2-a]pyrazin-6-yl)-2-oxo-acetamide] | 1 to 10 µg/mL (≈ 1.82 to 18.2 µM) | < 1 µg/mL | 1 to 10 µg/mL (≈ 1.82 to 18.2 µM) | < 1 µg/mL | 1 to 10 µg/mL (≈ 1.82 to 18.2 µM) | 1 to 10 µg/mL (≈ 1.82 to 18.2 µM) | 1 to 10 µg/mL (≈ 1.82 to 18.2 µM) | < 1 µg/mL | < 1 µg/mL | < 1 µg/mL | < 1 µg/mL | 1 to 10 µg/mL (≈ 1.82 to 18.2 µM)
3 | Cc1cc(C)nc(N2CCN(c3ccc(NC(=O)C(=O)c4c(-c5ccccc5)cc5n4CCC5)cc3)CC2)c1 [Example 6, N-{4-[4-(4,6-Dimethyl-pyridin-2-yl)-piperazin-1-yl]-phenyl}-2-oxo-2-(2-phenyl-6,7-dihydro-5H-pyrrolizin-3-yl)-acetamide] | < 1 µg/mL | < 1 µg/mL | < 1 µg/mL | < 1 µg/mL | < 1 µg/mL | < 1 µg/mL | < 1 µg/mL | < 1 µg/mL | < 1 µg/mL | < 1 µg/mL | < 1 µg/mL | < 1 µg/mL
4 | Cc1cc(C)nc(N2CCN(c3ccc(NC(=O)C(=O)c4c(-c5ccccc5)cc5n4CCOC5)cc3)CC2)c1 [Example 7, N-{4-[4-(4,6-Dimethyl-pyridin-2-yl)-piperazin-1-yl]-phenyl}-2-oxo-2-(7-phenyl-3,4-dihydro-1H-pyrrolo[2,1-c][1,4]oxazin-6-yl)-acetamide] | < 1 µg/mL | < 1 µg/mL | < 1 µg/mL | < 1 µg/mL | < 1 µg/mL | < 1 µg/mL | < 1 µg/mL | < 1 µg/mL | < 1 µg/mL | < 1 µg/mL | < 1 µg/mL | < 1 µg/mL
5 | Cc1cc(C)nc(N2CCN(c3ccc(NC(=O)C(=O)c4c(-c5ccccc5)cc(C)n4C(C)C)cc3)CC2)c1 [Example 8, N-{4-[4-(4,6-Dimethyl-pyridin-2-yl)-piperazin-1-yl]-phenyl}-2-(1-isopropyl-5-methyl-3-phenyl-1H-pyrrol-2-yl)-2-oxo-acetamide] | 1 to 10 µg/mL (≈ 1.87 to 18.7 µM) | 1 to 10 µg/mL (≈ 1.87 to 18.7 µM) | 1 to 10 µg/mL (≈ 1.87 to 18.7 µM) | 1 to 10 µg/mL (≈ 1.87 to 18.7 µM) | 1 to 10 µg/mL (≈ 1.87 to 18.7 µM) | > 10 µg/mL | < 1 µg/mL | 1 to 10 µg/mL (≈ 1.87 to 18.7 µM) | < 1 µg/mL | 1 to 10 µg/mL (≈ 1.87 to 18.7 µM) | < 1 µg/mL | 1 to 10 µg/mL (≈ 1.87 to 18.7 µM)
